PubChem BioAssay AID330 (DTP/NCI, 2004)
“And” between values parts separate entries of the source, which are not always exact repeats. Equal values may be shown once. Toxic doses and inconclusive results are not listed. Peptide text beside a SMILES is read from it. * marks the point of attachment. For = O=C*

Tested on: P388 leukemia ip, CD2F1 mice, survival T/C
Assay: NCI In Vivo Anticancer Drug Screen. Data for tumor model P388 Leukemia (intraperitoneal) in CD2F1 (CDF1) mice
Settings: endpoint: median survival time, higher = longer survival
Outline: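 Mice carrying the transplanted tumor received test compound or vehicle. Survival was recorded in each group, and the value is the treated-group measurement divided by that of the vehicle-treated control group.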

[1] = dose: 3.13 mg/kg/injection, schedule: Q01DX009 (ip), vehicle: other
[2] = dose: 6.25 mg/kg/injection, schedule: Q01DX009 (ip), vehicle: other
[3] = dose: 12.5 mg/kg/injection, schedule: Q01DX009 (ip), vehicle: other
[4] = dose: 25.0 mg/kg/injection, schedule: Q01DX009 (ip), vehicle: other
[5] = dose: 50.0 mg/kg/injection, schedule: Q01DX009 (ip), vehicle: other
[6] = dose: 50.0 mg/kg/injection, schedule: Q01DX009 (ip), vehicle: saline
[7] = dose: 100.0 mg/kg/injection, schedule: Q01DX009 (ip), vehicle: saline
[8] = dose: 200.0 mg/kg/injection, schedule: Q01DX009 (ip), vehicle: saline
[9] = dose: 60.0 mg/kg/injection, schedule: Q01DX005 (ip), vehicle: saline with Tween-80
[10] = dose: 120.0 mg/kg/injection, schedule: Q01DX005 (ip), vehicle: saline with Tween-80
[11] = dose: 50.0 mg/kg/injection, schedule: Q01DX005 (ip), vehicle: saline with Tween-80
[12] = dose: 100.0 mg/kg/injection, schedule: Q01DX005 (ip), vehicle: saline with Tween-80
[13] = dose: 200.0 mg/kg/injection, schedule: Q01DX005 (ip), vehicle: saline with Tween-80
[14] = dose: 60.0 mg/kg/injection, schedule: Q01DX005 (ip), vehicle: Klucel (hydroxypropylcellulose) (HPC)
[15] = dose: 120.0 mg/kg/injection, schedule: Q01DX005 (ip), vehicle: Klucel (hydroxypropylcellulose) (HPC)
[16] = dose: 240.0 mg/kg/injection, schedule: Q01DX005 (ip), vehicle: Klucel (hydroxypropylcellulose) (HPC)
[17] = dose: 50.0 mg/kg/injection, schedule: Q01DX009 (ip), vehicle: Klucel (hydroxypropylcellulose) (HPC)
[18] = dose: 100.0 mg/kg/injection, schedule: Q01DX009 (ip), vehicle: Klucel (hydroxypropylcellulose) (HPC)
[19] = dose: 240.0 mg/kg/injection, schedule: Q01DX005 (ip), vehicle: saline with Tween-80

Cc1ccc2c(c1)C(=O)C(CN1CCCCC1)CO2 (stereo unspecified)
T/C (dose: 100.0 mg/kg/injection, schedule: Q04DX003 (ip), vehicle: saline): 108 % of control | T/C (dose: 200.0 mg/kg/injection, schedule: Q04DX003 (ip), vehicle: saline): 108 % of control

COC1CC(=O)C2OC(c3ccccc3)OCC2O1 (stereo unspecified)
T/C (dose: 1.56 mg/kg/injection, schedule: Q01DX009 (ip), vehicle: other): 88 % of control | T/C [1]: 94 % of control | T/C [2]: 106 % of control | T/C [3]: 96 % of control | T/C [4]: 100 % of control and 97 % of control | T/C [5]: 99 % of control | T/C (dose: 100.0 mg/kg/injection, schedule: Q01DX009 (ip), vehicle: other): 92 % of control | T/C (dose: 200.0 mg/kg/injection, schedule: Q01DX009 (ip), vehicle: other): 87 % of control | T/C (dose: 400.0 mg/kg/injection, schedule: Q01DX009 (ip), vehicle: other): 98 % of control

CC(C)OP(=S)(S)OC(C)C
T/C [6]: 114 % of control | T/C [7]: 118 % of control | T/C [8]: 97 % of control

c1cc2cc(C3=NCCN3)[nH]c2cc1C1=NCCN1
T/C (dose: 12.5 mg/kg/injection, schedule: Q01DX005 (ip), vehicle: saline): 98 % of control | T/C (dose: 25.0 mg/kg/injection, schedule: Q01DX005 (ip), vehicle: saline): 103 % of control | T/C (dose: 50.0 mg/kg/injection, schedule: Q01DX005 (ip), vehicle: saline): 99 % of control

Cc1ccc(C(=O)C[n+]2ccccc2)c(O)c1
T/C [9]: 98 % of control | T/C [10]: 100 % of control

COC(=O)Nc1nc2ccc(Br)cc2[nH]1
T/C (dose: 200.0 mg/kg/injection, schedule: Q04DX003 (oral), vehicle: saline with Tween-80): 115 % of control | T/C (dose: 400.0 mg/kg/injection, schedule: Q04DX003 (oral), vehicle: saline with Tween-80): 107 % of control | T/C (dose: 800.0 mg/kg/injection, schedule: Q04DX003 (oral), vehicle: saline with Tween-80): 104 % of control | T/C (dose: 1600.0 mg/kg/injection, schedule: Q04DX003 (oral), vehicle: saline with Tween-80): 120 % of control

CCC(/C=C/c1ccccc1)=N\Nc1ccccc1
T/C [11]: 104 % of control | T/C [12]: 105 % of control | T/C [13]: 104 % of control | T/C (dose: 400.0 mg/kg/injection, schedule: Q01DX005 (ip), vehicle: saline with Tween-80): 98 % of control

C#Cc1cccc(N=Cc2cc([N+](=O)[O-])ccc2O)c1
T/C [11]: 100 % of control | T/C [12]: 99 % of control | T/C [13]: 93 % of control

COc1ccc(CSC(=S)Nc2ccc(N=Nc3ccccc3)cc2)cc1
T/C [6]: 107 % of control | T/C [7]: 104 % of control | T/C [8]: 119 % of control

COc1cc(C[C@@H]2COC(=O)[C@]2(O)Cc2ccc(O)c(OC)c2)ccc1O
T/C (dose: 1.25 mg/kg/injection, schedule: Q01DX009 (ip), vehicle: alcohol): 100 % of control | T/C (dose: 2.5 mg/kg/injection, schedule: Q01DX009 (ip), vehicle: alcohol): 113 % of control | T/C (dose: 5.0 mg/kg/injection, schedule: Q01DX009 (ip), vehicle: alcohol): 104 % of control | T/C (dose: 8.0 mg/kg/injection, schedule: Q01DX009 (ip), vehicle: saline + alcohol): 124 % of control | T/C (dose: 16.0 mg/kg/injection, schedule: Q01DX009 (ip), vehicle: saline + alcohol): 154 % of control

Cc1c(C)c(C)c(C(=O)c2ccccc2C(=O)NCCSC(C)(C)C)c(C)c1C
T/C (dose: 30.0 mg/kg/injection, schedule: Q01DX005 (ip), vehicle: Klucel (hydroxypropylcellulose) (HPC)): 98 % of control | T/C [14]: 93 % of control and 96 % of control | T/C [15]: 92 % of control | T/C [16]: 87 % of control

C=Cn1c([N+](=O)[O-])cnc1/C=C/c1ccc(C(=O)O)cc1
T/C [17]: 92 % of control and 97 % of control | T/C [18]: 89 % of control and 90 % of control | T/C (dose: 200.0 mg/kg/injection, schedule: Q01DX009 (ip), vehicle: Klucel (hydroxypropylcellulose) (HPC)): 95 % of control

Fc1ccc(CN2COc3c(ccc4cccnc34)C2)cc1
T/C (dose: 100.0 mg/kg/injection, schedule: Q04DX003 (ip), vehicle: Klucel (hydroxypropylcellulose) (HPC)): 96 % of control | T/C (dose: 200.0 mg/kg/injection, schedule: Q04DX003 (ip), vehicle: Klucel (hydroxypropylcellulose) (HPC)): 97 % of control | T/C (dose: 400.0 mg/kg/injection, schedule: Q04DX003 (ip), vehicle: Klucel (hydroxypropylcellulose) (HPC)): 94 % of control

CSc1ncc(C=O)n1Cc1ccccc1
T/C (dose: 17.5 mg/kg/injection, schedule: Q01DX005 (ip), vehicle: Klucel (hydroxypropylcellulose) (HPC)): 115 % of control | T/C (dose: 35.0 mg/kg/injection, schedule: Q01DX005 (ip), vehicle: Klucel (hydroxypropylcellulose) (HPC)): 98 % of control | T/C (dose: 70.0 mg/kg/injection, schedule: Q01DX005 (ip), vehicle: Klucel (hydroxypropylcellulose) (HPC)): 101 % of control

c1ccc2c(c1)CCc1c-2n[nH]c1-c1[nH]nc2c1CCc1ccccc1-2
T/C [14]: 99 % of control | T/C [15]: 89 % of control | T/C [16]: 88 % of control

C#CCSc1n[nH]c(=O)n1C1CCCCC1
T/C [9]: 99 % of control | T/C [10]: 106 % of control | T/C [19]: 106 % of control

CC(C)C(NC=O)C(=O)NCC(=O)NC(CO)C(=O)NC(CCC(=O)O)C(=O)O (stereo unspecified) (For-VGSE-OH; configuration not given here)
T/C (dose: 9.0 mg/kg/injection, schedule: Q01DX005 (ip), vehicle: water): 110 % of control | T/C (dose: 18.0 mg/kg/injection, schedule: Q01DX005 (ip), vehicle: water): 101 % of control | T/C (dose: 36.0 mg/kg/injection, schedule: Q01DX005 (ip), vehicle: water): 110 % of control | T/C (dose: 72.0 mg/kg/injection, schedule: Q01DX005 (ip), vehicle: water): 110 % of control | T/C (dose: 144.0 mg/kg/injection, schedule: Q01DX005 (ip), vehicle: water): 106 % of control

COc1ccc(C(SCC(N)C(=O)O)(c2ccccc2)c2ccc(OC)cc2)cc1 (stereo unspecified)
T/C (dose: 33.0 mg/kg/injection, schedule: Q04DX003 (ip), vehicle: saline): 185 % of control | T/C (dose: 50.0 mg/kg/injection, schedule: Q04DX003 (ip), vehicle: saline): 165 % of control | T/C (dose: 75.0 mg/kg/injection, schedule: Q04DX003 (ip), vehicle: saline): 90 % of control

CCCCCC(CN(C)C)/C(CC(NO)c1ccccc1)=N\O (stereo unspecified)
T/C [17]: 106 % of control | T/C [18]: 106 % of control

CC(C)(Oc1ccc(Cl)cc1)C(=O)NC1CC(C)(C)N(O)C(C)(C)C1
T/C [9]: 104 % of control | T/C [10]: 96 % of control | T/C [19]: 91 % of control

COc1cc([N+](=O)[O-])cc2c1OC1(N=C2)Sc2ccccc2N1C (stereo unspecified)
T/C (dose: 100.0 mg/kg/injection, schedule: Q01DX001 (ip), vehicle: saline): 103 % of control | T/C (dose: 200.0 mg/kg/injection, schedule: Q01DX001 (ip), vehicle: saline): 100 % of control | T/C (dose: 400.0 mg/kg/injection, schedule: Q01DX001 (ip), vehicle: saline): 103 % of control

COc1cc([C@@H]2c3cc4c(c(OC)c3C[C@H]3COC(=O)[C@@H]32)OCO4)cc(OC)c1OC
T/C (dose: 12.5 mg/kg/injection, schedule: Q01DX005 (ip), vehicle: Klucel (hydroxypropylcellulose) (HPC)): 100 % of control | T/C (dose: 25.0 mg/kg/injection, schedule: Q01DX005 (ip), vehicle: Klucel (hydroxypropylcellulose) (HPC)): 103 % of control | T/C (dose: 50.0 mg/kg/injection, schedule: Q01DX005 (ip), vehicle: Klucel (hydroxypropylcellulose) (HPC)): 103 % of control and 111 % of control

CCCCCCCCCCSc1ncnc2nc[nH]c12
T/C (dose: 12.5 mg/kg/injection, schedule: Q01DX009 (ip), vehicle: saline with Tween-80): 100 % of control | T/C (dose: 25.0 mg/kg/injection, schedule: Q01DX009 (ip), vehicle: saline with Tween-80): 90 % of control | T/C (dose: 50.0 mg/kg/injection, schedule: Q01DX009 (ip), vehicle: saline with Tween-80): 90 % of control

CCOC(=O)N(NC(=O)c1ccc(N(CCCl)CCCl)cc1)C(C)=O
T/C [1]: 103 % of control | T/C [2]: 100 % of control | T/C [3]: 101 % of control | T/C [4]: 111 % of control | T/C [5]: 111 % of control and 114 % of control | T/C (dose: 88.0 mg/kg/injection, schedule: Q01DX009 (ip), vehicle: other): 110 % of control | T/C (dose: 133.0 mg/kg/injection, schedule: Q01DX009 (ip), vehicle: other): 112 % of control
